Measured values as given in patent publication US11000033B2, “Ketone or oxime compound, and herbicide” (NISSAN CHEMICAL CORPORATION, priority 2014, dated 2021).

Legend:
Format in all cases: in vivo
[1] = test system: Echinochloa oryzacola Vasing.; assay: Test Example 2: herbicidal activity, application during weed generation in submerged conditions (symbol A); conditions: Table 23; application herbicide amount 320 g/ha; grade 0-5 by criteria of Test Example 1
How it was run: (§1)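 Submerged alluvial soil (4 cm) sown with mixed seed; greenhouse 25–30° C. 1–2 leaf: diluted emulsion onto water surface, preset dose. Visual score, 3 wk.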

[2] = test system: Scirpus juncoides; assay: Test Example 2: herbicidal activity, application during weed generation in submerged conditions (symbol B); conditions: Table 23; application herbicide amount 320 g/ha; grade 0-5 by criteria of Test Example 1
How it was run: as §1

[3] = test system: Echinochloa crus-galli var. crus-galli; assay: Test Example 3: herbicidal effect by foliage application, Wagner pot (symbol H); conditions: application herbicide amount 320 g/ha
How it was run: (§2)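 Steps: fill pot with alluvial soil; add water to 0.1–0.5 cm depth; sow weed and rice seed; grow 14 days at 25–30 °C; spray diluted emulsion over the leaves; rate effect after 3 weeks.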

[4] = test system: Leptochloa chinensis; assay: Test Example 3: herbicidal effect by foliage application, Wagner pot (symbol D); conditions: application herbicide amount 320 g/ha
How it was run: as §2

[5] = test system: Digitaria ciliaris; assay: Test Example 4: herbicidal effect by soil treatment (symbol F); conditions: for F: Digitaria ciliaris, herbicidal effect grade: 320 g/ha
How it was run: (§3)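 Seeds were sown in sterilized diluvial soil, covered with about 1.5 cm of soil, and the soil surface was sprayed with a water-diluted emulsion of the compound at a predetermined rate. Plants grew in a greenhouse at 25° C. to 30° C.; effects were scored visually 3 weeks after application.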

[6] = test system: Echinochloa crus-galli var. crus-galli; assay: Test Example 4: herbicidal effect by soil treatment (symbol H); conditions: for H: Echinochloa crus-galli var. crus-galli, herbicidal effect grade: 320 g/ha
How it was run: as §3

[7] = test system: Lolium multiflorum Lam.; assay: Test Example 4: herbicidal effect by soil treatment (symbol K); conditions: for K: Lolium multiflorum Lam., herbicidal effect grade: 320 g/ha
How it was run: as §3

[8] = test system: Abutilon theophrasti; assay: Test Example 4: herbicidal effect by soil treatment (symbol M)
How it was run: as §3

[9] = test system: Amaranthus retroflexus; assay: Test Example 4: herbicidal effect by soil treatment (symbol N); conditions: for N: Amaranthus retroflexus, herbicidal effect grade: 320 g/ha
How it was run: as §3

[10] = test system: rapeseed; assay: Test Example 4: effect on crop by soil treatment (symbol g); conditions: for g: rapeseed, effect grade on crop: 320 g/ha
How it was run: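 Soil-treatment setup: crop and weed seeds were spot-sown into sterilized diluvial soil, then buried beneath approximately 1.5 cm of it, and the boxes were housed in a 25–30° C. greenhouse.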

[11] = test system: Digitaria ciliaris; assay: Test Example 5: herbicidal effect by foliage application, plastic box (symbol F); conditions: 320 g/ha, 3 weeks after application
How it was run: (§4)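 Greenhouse foliar test: seedlings at 14 days, grown 25° C. to 30° C. in sterilized diluvial soil; compound applied as an aqueous dilution of an emulsion; response read 3 weeks after spraying.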

[12] = test system: Avena fatua; assay: Test Example 5: herbicidal effect by foliage application, plastic box (symbol I); conditions: 320 g/ha, 3 weeks after application
How it was run: as §4

[13] = test system: Amaranthus retroflexus; assay: Test Example 5: herbicidal effect by foliage application, plastic box (symbol N); conditions: 320 g/ha, 3 weeks after application
How it was run: as §4

[14] = test system: Chenopodium album; assay: Test Example 5: herbicidal effect by foliage application, plastic box (symbol O); conditions: 320 g/ha, 3 weeks after application
How it was run: as §4

[15] = test system: Stellaria media; assay: Test Example 5: herbicidal effect by foliage application, plastic box (symbol P); conditions: 320 g/ha, 3 weeks after application
How it was run: as §4

[16] = test system: Veronica persica; assay: Test Example 5: herbicidal effect by foliage application, plastic box (symbol R); conditions: 320 g/ha, 3 weeks after application
How it was run: as §4

[17] = test system: rice plant; assay: Test Example 5: effect on crop by foliage application, plastic box (symbol b); conditions: 320 g/ha, 3 weeks after application
How it was run: (§5)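 In a plastic box 7 cm deep filled with sterilized diluvial soil, seeds of crops and weeds such as Digitaria ciliaris, Avena fatua and Amaranthus retroflexus are sown in spots and covered with about 1.5 cm of soil before greenhouse growth at 25–30° C.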

[18] = test system: wheat; assay: Test Example 5: effect on crop by foliage application, plastic box (symbol e); conditions: 320 g/ha, 3 weeks after application
How it was run: as §5

[19] = test system: beet; assay: Test Example 5: effect on crop by foliage application, plastic box (symbol f); conditions: 320 g/ha, 3 weeks after application
How it was run: as §5

[20] = application herbicide amount 320 g/ha

Row | SMILES | Herbicidal effect grade, A: Echinochloa oryzacola Vasing. [1] | Herbicidal effect grade, B: Scirpus juncoides [2] | herbicidal effect on H (Echinochloa crus-galli var. crus-galli), grade 0-5 [3] | herbicidal effect on D (Leptochloa chinensis), grade 0-5 [4] | F: Digitaria ciliaris, herbicidal effect grade [11] | I: Avena fatua, herbicidal effect grade [12] | N: Amaranthus retroflexus, herbicidal effect grade [13] | O: Chenopodium album, herbicidal effect grade [14] | P: Stellaria media, herbicidal effect grade [15] | R: Veronica persica, herbicidal effect grade [16] | b: directly sowed rice plant, effect on crop grade [17] | e: wheat, effect on crop grade [18] | f: beet, effect on crop grade [19] | F: Digitaria ciliaris, herbicidal effect grade [5] | H: Echinochloa crus-galli var. crus-galli, herbicidal effect grade [6] | K: Lolium multiflorum Lam., herbicidal effect grade [7] | N: Amaranthus retroflexus, herbicidal effect grade [9] | g: rapeseed, effect grade on crop [10] | F: Digitaria ciliaris, herbicidal effect (criteria 0-5) [11] | I: Avena fatua, herbicidal effect (criteria 0-5) [12] | other results
1 | CON=C(C)CC1CC(OCC#N)=C(c2c(C)cc(C)cc2C)C1=O (stereo not shown) [1-013] | 0 (Herbicidal ratio of 5% or lower (almost no effect)) | 0 (Herbicidal ratio of 5% or lower (almost no effect)) | 0 (Herbicidal ratio of 5% or lower (almost no effect)) | 2 (Herbicidal ratio of 20% or higher and lower than 40%) | 0 (Herbicidal ratio of 5% or lower (almost no effect)) | 0 (Herbicidal ratio of 5% or lower (almost no effect)) | 0 (Herbicidal ratio of 5% or lower (almost no effect)) | 0 (Herbicidal ratio of 5% or lower (almost no effect)) | 0 (Herbicidal ratio of 5% or lower (almost no effect)) | 0 (Herbicidal ratio of 5% or lower (almost no effect)) | 2 (Herbicidal ratio of 20% or higher and lower than 40%) | 0 (Herbicidal ratio of 5% or lower (almost no effect)) | 0 (Herbicidal ratio of 5% or lower (almost no effect)) |  |  |  |  |  |  |  | F (Digitaria ciliaris) herbicidal effect grade [5, 20]: 0 (Herbicidal ratio of 5% or lower (almost no effect)); H (Echinochloa crus-galli var. crus-galli) herbicidal effect grade [6, 20]: 0 (Herbicidal ratio of 5% or lower (almost no effect)); K (Lolium multiflorum Lam.) herbicidal effect grade [7, 20]: 0 (Herbicidal ratio of 5% or lower (almost no effect)); M (Abutilon theophrasti) herbicidal effect grade [8, 20]: 0 (Herbicidal ratio of 5% or lower (almost no effect)); N (Amaranthus retroflexus) herbicidal effect grade [9, 20]: 0 (Herbicidal ratio of 5% or lower (almost no effect)); g (rapeseed) effect on crop grade [10, 20]: 0 (Herbicidal ratio of 5% or lower (almost no effect))
2 | CON=C(C)CC1CC(OS(=O)(=O)CCCCl)=C(c2c(C)cc(C)cc2C)C1=O (stereo not shown) [1-142] | 5 (Herbicidal ratio of 90% or more (almost completely withered)) | 4 (Herbicidal ratio of 70% or higher and lower than 90%) | 5 (Herbicidal ratio of 90% or more (almost completely withered)) | 5 (Herbicidal ratio of 90% or more (almost completely withered)) |  |  |  |  |  |  |  |  |  | 5 (Herbicidal ratio of 90% or more (almost completely withered)) | 5 (Herbicidal ratio of 90% or more (almost completely withered)) | 5 (Herbicidal ratio of 90% or more (almost completely withered)) | 0 (Herbicidal ratio of 5% or lower (almost no effect)) | 3 (Herbicidal ratio of 40% or higher and lower than 70%) | 5 (Herbicidal ratio of 90% or more (almost completely withered)) | 5 (Herbicidal ratio of 90% or more (almost completely withered)) | M: Abutilon theophrasti, herbicidal effect grade ([8]; 320 g/ha): 0 (Herbicidal ratio of 5% or lower (almost no effect)); N: Amaranthus retroflexus, herbicidal effect (criteria 0-5) [13]: 0 (Herbicidal ratio of 5% or lower (almost no effect)); O: Chenopodium album, herbicidal effect (criteria 0-5) [14]: 2 (Herbicidal ratio of 20% or higher and lower than 40%); P: Stellaria media, herbicidal effect (criteria 0-5) [15]: 3 (Herbicidal ratio of 40% or higher and lower than 70%); R: Veronica persica, herbicidal effect (criteria 0-5) [16]: 3 (Herbicidal ratio of 40% or higher and lower than 70%); b: directly sowed rice plant, effect on crop (criteria 0-5) [17]: 5 (Herbicidal ratio of 90% or more (almost completely withered)); e: wheat, effect on crop (criteria 0-5) [18]: 4 (Herbicidal ratio of 70% or higher and lower than 90%); f: beet, effect on crop (criteria 0-5) [19]: 3 (Herbicidal ratio of 40% or higher and lower than 70%)
3 | CON=C(C)CC1CC(OC(=O)N2CCCC2)=C(c2c(C)cc(C)cc2C)C1=O (stereo not shown) [1-150] | 5 (Herbicidal ratio of 90% or more (almost completely withered)) | 3 (Herbicidal ratio of 40% or higher and lower than 70%) | 5 (Herbicidal ratio of 90% or more (almost completely withered)) | 4 (Herbicidal ratio of 70% or higher and lower than 90%) |  |  |  |  |  |  |  |  |  | 5 (Herbicidal ratio of 90% or more (almost completely withered)) | 0 (Herbicidal ratio of 5% or lower (almost no effect)) | 5 (Herbicidal ratio of 90% or more (almost completely withered)) |  | 0 (Herbicidal ratio of 5% or lower (almost no effect)) | 5 (Herbicidal ratio of 90% or more (almost completely withered)) | 5 (Herbicidal ratio of 90% or more (almost completely withered)) | N: Amaranthus retroflexus, herbicidal effect (criteria 0-5) [13]: 0 (Herbicidal ratio of 5% or lower (almost no effect)); O: Chenopodium album, herbicidal effect (criteria 0-5) [14]: 0 (Herbicidal ratio of 5% or lower (almost no effect)); P: Stellaria media, herbicidal effect (criteria 0-5) [15]: 0 (Herbicidal ratio of 5% or lower (almost no effect)); R: Veronica persica, herbicidal effect (criteria 0-5) [16]: 0 (Herbicidal ratio of 5% or lower (almost no effect)); b: directly sowed rice plant, effect on crop (criteria 0-5) [17]: 5 (Herbicidal ratio of 90% or more (almost completely withered)); e: wheat, effect on crop (criteria 0-5) [18]: 4 (Herbicidal ratio of 70% or higher and lower than 90%); f: beet, effect on crop (criteria 0-5) [19]: 0 (Herbicidal ratio of 5% or lower (almost no effect))
4 | CON=C(C)CC1CC(OC(=O)C(C)Oc2ccc(Oc3ccc(Cl)cc3Cl)cc2)=C(c2c(C)cc(C)cc2C)C1=O (stereo not shown) [1-163] | 5 (Herbicidal ratio of 90% or more (almost completely withered)) | 4 (Herbicidal ratio of 70% or higher and lower than 90%) | 5 (Herbicidal ratio of 90% or more (almost completely withered)) | 5 (Herbicidal ratio of 90% or more (almost completely withered)) | 5 (Herbicidal ratio of 90% or more (almost completely withered)) | 5 (Herbicidal ratio of 90% or more (almost completely withered)) | 3 (Herbicidal ratio of 40% or higher and lower than 70%) | 3 (Herbicidal ratio of 40% or higher and lower than 70%) | 3 (Herbicidal ratio of 40% or higher and lower than 70%) | 3 (Herbicidal ratio of 40% or higher and lower than 70%) | 5 (Herbicidal ratio of 90% or more (almost completely withered)) | 5 (Herbicidal ratio of 90% or more (almost completely withered)) | 4 (Herbicidal ratio of 70% or higher and lower than 90%) | 5 (Herbicidal ratio of 90% or more (almost completely withered)) | 5 (Herbicidal ratio of 90% or more (almost completely withered)) | 5 (Herbicidal ratio of 90% or more (almost completely withered)) | 4 (Herbicidal ratio of 70% or higher and lower than 90%) | 4 (Herbicidal ratio of 70% or higher and lower than 90%) |  |  | 
